Assay results taken from ChEMBL document CHEMBL1201862, “PubChem BioAssay data set” (2004).
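Following 48 hours of exposure in 96-well plates, responses at five concentrations were used to interpolate endpoints linearly. The concentration for 50% growth inhibition is given as GI50.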 Active and inactive are the calls of the source. Cut-off read from the data, not from the text of the source: active = GI50 up to about 1.1 µM and inactive = higher.

Legend:
Assay in all cases: NCI tumour cell line growth inhibition, 48 h
[1] = test system: HCT-15
[2] = test system: SK-MEL-5
[3] = test system: UACC-62
[4] = test system: SK-MEL-2
[5] = test system: SF-539
[6] = test system: SK-OV-3
[7] = test system: SK-MEL-28
[8] = test system: HOP-92
[9] = test system: LXFL 529
[10] = test system: A549
[11] = test system: SN12C
[12] = test system: M14
[13] = test system: OVCAR-4
[14] = test system: EKVX
[15] = test system: HCT-116
[16] = test system: T47D
[17] = test system: Hs-578T
[18] = test system: DU-145
[19] = test system: MCF7
[20] = test system: MDA-N

| SMILES | GI50 [1] [µM] | GI50 [2] | GI50 [3] | GI50 [4] | GI50 [5] | GI50 [6] | GI50 [7] | GI50 [8] | GI50 [9] | GI50 [10] | GI50 [11] | GI50 [12] | GI50 [13] | GI50 [14] | GI50 [15] | GI50 [16] | GI50 [17] | GI50 [18] | GI50 [19] | GI50 [20] |
| --- | --- | --- | --- | --- | --- | --- | --- | --- | --- | --- | --- | --- | --- | --- | --- | --- | --- | --- | --- | --- |
| CCOC(=O)N[C@@H]1C(CC(=O)OC)O[C@H]2OC(C)(C)O[C@H]21 (stereo partly drawn) | > 100 | > 100 µM (inactive) | > 100 µM (inactive) | > 100 µM (inactive) | > 100 µM (inactive) | > 100 µM (inactive) | > 100 µM (inactive) | > 100 µM (inactive) | > 100 µM (inactive) | > 100 µM (inactive) | > 100 µM (inactive) | > 100 µM (inactive) | > 100 µM (inactive) |  |  |  |  |  |  |  |
| Cc1cc2c(=O)c3ccc(Cl)cc3[nH]c2c(C(N)=O)c1C | > 100 | > 100 µM (inactive) | > 100 µM (inactive) | > 100 µM (inactive) | > 100 µM (inactive) | > 100 µM (inactive) | > 100 µM (inactive) | > 100 µM (inactive) | > 100 µM (inactive) | > 100 µM (inactive) | > 100 µM (inactive) | > 100 µM (inactive) | > 100 µM (inactive) | > 100 µM (inactive) | > 100 µM (inactive) |  |  |  |  |  |
| NC(CCc1ncc(-c2ccccc2)s1)C(=O)O (stereo not drawn) | > 100 | > 100 µM (inactive) | > 100 µM (inactive) |  | > 100 µM (inactive) | > 100 µM (inactive) | > 100 µM (inactive) | > 100 µM (inactive) | > 100 µM (inactive) | > 100 µM (inactive) | > 100 µM (inactive) | > 100 µM (inactive) |  | > 100 µM (inactive) | > 100 µM (inactive) |  |  |  |  |  |
| NC(CCSC(F)F)C(=O)O (stereo not drawn) |  | > 100 µM (inactive) | > 100 µM (inactive) | > 100 µM (inactive) | > 100 µM (inactive) | > 100 µM (inactive) | > 100 µM (inactive) | > 100 µM (inactive) | > 100 µM (inactive) | > 100 µM (inactive) | > 100 µM (inactive) | > 100 µM (inactive) | > 100 µM (inactive) | > 100 µM (inactive) | > 100 µM (inactive) |  |  |  |  |  |
| NC(=O)C(=Cc1ccc(CP(=O)(O)O)cc1)C(N)=O | > 100 | > 100 µM (inactive) | > 100 µM (inactive) | > 100 µM (inactive) | > 100 µM (inactive) | > 100 µM (inactive) | > 100 µM (inactive) | > 100 µM (inactive) | > 100 µM (inactive) | > 100 µM (inactive) | > 100 µM (inactive) | > 100 µM (inactive) | > 100 µM (inactive) | > 100 µM (inactive) | > 100 µM (inactive) |  |  |  |  |  |
| CCCN1CN(C(C(=O)N[C@@H]2C(=O)N3C2SC(C)(C)C3C(=O)O)c2ccccc2)CSC1=S (stereo partly drawn) | 80.5 | > 100 µM (inactive) | > 100 µM (inactive) | > 100 µM (inactive) | > 100 µM (inactive) | > 100 µM (inactive) | > 100 µM (inactive) | > 100 µM (inactive) | 70.5 µM (inactive) | > 100 µM (inactive) | > 100 µM (inactive) | > 100 µM (inactive) | > 100 µM (inactive) | > 100 µM (inactive) | 57.1 µM (inactive) |  |  |  |  |  |
| COC1=CC(=O)C2C(C1=O)[C@@H]1c3ccccc3OC(C)(C)[C@H]21 (stereo partly drawn) | 19.9 | 27.4 µM (inactive) | > 10 µM (inactive) | 26.3 µM (inactive) | 23.5 µM (inactive) | 90.4 µM (inactive) | 17.4 µM (inactive) | 20.5 µM (inactive) | 18.7 µM (inactive) | 70 µM (inactive) |  | 18.7 µM (inactive) | 17.9 µM (inactive) | 31.9 µM (inactive) | 16.2 µM (inactive) |  |  |  |  |  |
| CNS(=O)(=O)NN(C)S(=O)(=O)c1ccc(Br)cc1 | > 100 | > 100 µM (inactive) | > 100 µM (inactive) | > 100 µM (inactive) | > 100 µM (inactive) |  |  |  | > 100 µM (inactive) | > 100 µM (inactive) | > 100 µM (inactive) | > 100 µM (inactive) | > 100 µM (inactive) | > 100 µM (inactive) | > 100 µM (inactive) |  |  |  |  |  |
| O=C(CC1C(=O)Nc2ccccc2S1(=O)=O)Nc1cccc(Cl)c1 (stereo not drawn) | 15.5 | 19.1 µM (inactive) | 15.1 µM (inactive) | 27.1 µM (inactive) | 10.7 µM (inactive) |  | 20.1 µM (inactive) | 16.1 µM (inactive) | 17.2 µM (inactive) | 20 µM (inactive) | 15.7 µM (inactive) | 18.8 µM (inactive) | 20.1 µM (inactive) | 17.2 µM (inactive) | 18.2 µM (inactive) |  |  |  |  |  |
| CCC1NCC(=O)c2c1[nH]c1ccccc21 (stereo not drawn) | > 100 | > 100 µM (inactive) | > 100 µM (inactive) | > 100 µM (inactive) | > 100 µM (inactive) | > 100 µM (inactive) | > 100 µM (inactive) | > 100 µM (inactive) | > 100 µM (inactive) | > 100 µM (inactive) | > 100 µM (inactive) | > 100 µM (inactive) | > 100 µM (inactive) | > 100 µM (inactive) | > 100 µM (inactive) |  |  |  |  |  |
| O=C(O)CCSC(=O)Nc1ccc(/N=N/c2ccccc2)cc1 | > 100 | > 100 µM (inactive) | 59.4 µM (inactive) |  | > 100 µM (inactive) | > 100 µM (inactive) | > 100 µM (inactive) | > 100 µM (inactive) | 61.1 µM (inactive) | > 100 µM (inactive) | > 100 µM (inactive) | > 100 µM (inactive) | 95.1 µM (inactive) | 74 µM (inactive) | > 100 µM (inactive) |  |  |  |  |  |
| O=C1CC2(C[C@@H]3CCCCCCCCC[C@@H](C3)C2)N1 (stereo partly drawn) | 17.7 | 16.4 µM (inactive) | 15.8 µM (inactive) | 19.8 µM (inactive) | 15.8 µM (inactive) | 15.1 µM (inactive) | 17.2 µM (inactive) | 10.8 µM (inactive) | 15.7 µM (inactive) | 21.8 µM (inactive) | 16.8 µM (inactive) | 14.8 µM (inactive) | 17.9 µM (inactive) | 14.4 µM (inactive) | 19.5 µM (inactive) |  |  |  |  |  |
| COc1ccc(/C(Cl)=C/c2cc(OC)ccc2OC)cc1 | 53.2 | 64.7 µM (inactive) | 38.4 µM (inactive) |  | 64.7 µM (inactive) | 99.8 µM (inactive) | 79.6 µM (inactive) | 40.8 µM (inactive) | 72.1 µM (inactive) | 75.2 µM (inactive) | 56.4 µM (inactive) | 63.8 µM (inactive) | > 100 µM (inactive) | > 100 µM (inactive) | 48.8 µM (inactive) |  |  |  |  |  |
| COC(=O)c1ccc2n1C1CC3CC(CC2C3)C1 | > 100 | 30.9 µM (inactive) | 41.2 µM (inactive) | 70.6 µM (inactive) | > 100 µM (inactive) | > 100 µM (inactive) | > 100 µM (inactive) | 24.8 µM (inactive) |  | > 100 µM (inactive) | > 100 µM (inactive) | > 100 µM (inactive) | > 100 µM (inactive) | > 100 µM (inactive) | 42.6 µM (inactive) | 53.6 µM (inactive) | 16.2 µM (inactive) | > 100 µM (inactive) | > 100 µM (inactive) | > 100 µM (inactive) |
| CCN(CC)CCOCC1CCCN2CCCCC12 (stereo not drawn) | > 100 | > 100 µM (inactive) | > 100 µM (inactive) | > 100 µM (inactive) | > 100 µM (inactive) | > 100 µM (inactive) | > 100 µM (inactive) | > 100 µM (inactive) |  | > 100 µM (inactive) | > 100 µM (inactive) | > 100 µM (inactive) | > 100 µM (inactive) | > 100 µM (inactive) | > 100 µM (inactive) | > 100 µM (inactive) | > 100 µM (inactive) | > 100 µM (inactive) | > 100 µM (inactive) | > 100 µM (inactive) |
| O=C(CCc1ccc(O)c(O)c1)c1ccc(O)c(O)c1O | 14.7 | 17.3 µM (inactive) | 25.9 µM (inactive) | 58.7 µM (inactive) | 15.5 µM (inactive) | 52.2 µM (inactive) | 60.7 µM (inactive) | 22.3 µM (inactive) |  | 34.2 µM (inactive) | 15.3 µM (inactive) | 16.8 µM (inactive) | 19.7 µM (inactive) | 20 µM (inactive) | 37.3 µM (inactive) | 23.7 µM (inactive) | 23.6 µM (inactive) | 19.7 µM (inactive) | 19.1 µM (inactive) | 15.3 µM (inactive) |
| NCc1ccccc1.O=C(O)NCc1ccccc1 | 30.8 | 16.8 µM (inactive) | 15.1 µM (inactive) | 8.91 µM (inactive) | 41.1 µM (inactive) | 37.5 µM (inactive) | 38.2 µM (inactive) | 19.6 µM (inactive) |  | 34.9 µM (inactive) | 31.8 µM (inactive) | 33.9 µM (inactive) | 25.1 µM (inactive) | 30.6 µM (inactive) | 25.1 µM (inactive) | 23.9 µM (inactive) | 26.1 µM (inactive) | 42.8 µM (inactive) | 34.8 µM (inactive) | 29.5 µM (inactive) |
| COC(=O)C1(CCC(=O)N(C)c2ccccc2)NNC2C(=O)N(c3ccccc3)C(=O)C21 (stereo not drawn) | > 10 | > 10 µM (inactive) | > 10 µM (inactive) | > 10 µM (inactive) | > 10 µM (inactive) | > 10 µM (inactive) | > 10 µM (inactive) | > 10 µM (inactive) |  | > 10 µM (inactive) | > 10 µM (inactive) | > 10 µM (inactive) | > 10 µM (inactive) | > 10 µM (inactive) | > 10 µM (inactive) | > 10 µM (inactive) | > 10 µM (inactive) | > 10 µM (inactive) | > 10 µM (inactive) | > 10 µM (inactive) |
